Test results from the NIST ThermoML archive (doi:10.1016/j.jct.2016.06.034).

Assay: mn = molality of the nth substance listed, in mol/kg
Conditions: for electrical conductivity / speed of sound / mass density: 84.5 kPa, Liquid; for electrical conductivity: Alternating current cell with electrodes; for speed of sound: Frequency=3 MHz, Sing-around technique in a fixed-path interferometer; for mass density: Vibrating tube method; for surface tension liquid-gas: platinum plate method

CCCCCCCCCCn1cc[n+](C)c1.[Br-] [1-decyl-3-methylimidazolium bromide] + O
Conditions	electrical conductivity [S/m]	mass density [kg/m3]	speed of sound [m/s]	surface tension liquid-gas [mN/m]
288.15 K, m1 = 1e-05	0.000112	–	–	–
288.15 K, m1 = 2e-05	0.000223	–	–	–
288.15 K, m1 = 4e-05	0.000329	–	–	–
288.15 K, m1 = 5e-05	0.000442	–	–	–
288.15 K, m1 = 8e-05	0.000678	–	–	–
288.15 K, m1 = 0.00012	0.00103	–	–	–
288.15 K, m1 = 0.00018	0.00151	–	–	–
288.15 K, m1 = 0.00026	0.00212	–	–	–
288.15 K, m1 = 0.00033	0.00273	–	–	–
288.15 K, m1 = 0.00044	0.00357	–	–	–
288.15 K, m1 = 0.00056	0.00455	–	–	–
288.15 K, m1 = 0.00075	0.006	–	–	–
288.15 K, m1 = 0.00098	0.00777	–	–	–
288.15 K, m1 = 0.00127	0.01	–	–	–
288.15 K, m1 = 0.00152	0.0119	–	–	–
288.15 K, m1 = 0.0021	0.0163	–	–	–
288.15 K, m1 = 0.00279	0.0217	–	–	–
288.15 K, m1 = 0.00349	0.027	–	–	–
288.15 K, m1 = 0.00439	0.0336	–	–	–
288.15 K, m1 = 0.00754	0.0559	–	–	–
288.15 K, m1 = 0.0095	–	999.502	1468.8	–
288.15 K, m1 = 0.01045	0.0758	–	–	–
288.15 K, m1 = 0.01291	0.0921	–	–	–
288.15 K, m1 = 0.01379	–	999.684	1469.8	–
288.15 K, m1 = 0.01562	0.11	–	–	–
288.15 K, m1 = 0.01652	–	999.799	1470.4	–
288.15 K, m1 = 0.01821	0.126	–	–	–
288.15 K, m1 = 0.0208	0.143	–	–	–
288.15 K, m1 = 0.02179	–	1000.02	1471.6	–
288.15 K, m1 = 0.02334	0.158	–	–	–
288.15 K, m1 = 0.0258	0.173	–	–	–
288.15 K, m1 = 0.02615	–	1000.2	1472.5	–
288.15 K, m1 = 0.02825	0.188	–	–	–
288.15 K, m1 = 0.03047	0.2	–	–	–
288.15 K, m1 = 0.03106	–	1000.41	1473.5	–
288.15 K, m1 = 0.03259	0.212	–	–	–
288.15 K, m1 = 0.03338	–	1000.51	1474	–
288.15 K, m1 = 0.03462	0.224	–	–	–
288.15 K, m1 = 0.03662	0.236	–	–	–
288.15 K, m1 = 0.03819	–	1000.71	1475	–
288.15 K, m1 = 0.03965	0.252	–	–	–
288.15 K, m1 = 0.0406	–	1000.81	1475.3	–
288.15 K, m1 = 0.04174	0.262	–	–	–
288.15 K, m1 = 0.04332	–	1000.92	1475.6	–
288.15 K, m1 = 0.04366	0.27	–	–	–
288.15 K, m1 = 0.04517	0.275	–	–	–
288.15 K, m1 = 0.04614	–	1001.03	1476	–
288.15 K, m1 = 0.04687	0.28	–	–	–
288.15 K, m1 = 0.04895	0.285	–	–	–
288.15 K, m1 = 0.05102	0.289	–	–	–
288.15 K, m1 = 0.05341	0.294	–	–	–
288.15 K, m1 = 0.05515	–	1001.35	1476.4	–
288.15 K, m1 = 0.05563	0.298	–	–	–
288.15 K, m1 = 0.05739	0.301	–	–	–
288.15 K, m1 = 0.05949	0.306	–	–	–
288.15 K, m1 = 0.06232	0.311	–	–	–
288.15 K, m1 = 0.06396	–	1001.66	1476.7	–
288.15 K, m1 = 0.07815	–	1002.15	1477	–
288.15 K, m1 = 0.122	–	1003.65	1477.9	–
288.15 K, m1 = 0.1726	–	1005.33	1478.9	–
288.15 K, m1 = 0.2247	–	1007.03	1480	–
288.15 K, m1 = 0.2539	–	1007.95	1480.6	–
293.15 K, m1 = 1e-05	0.00016	–	–	–
293.15 K, m1 = 3e-05	0.000289	–	–	–
293.15 K, m1 = 6e-05	0.000554	–	–	–
293.15 K, m1 = 7e-05	0.000686	–	–	–
293.15 K, m1 = 9e-05	0.00082	–	–	–
293.15 K, m1 = 0.0001	0.000947	–	–	–
293.15 K, m1 = 0.00011	0.00106	–	–	–
293.15 K, m1 = 0.00016	0.00146	–	–	–
293.15 K, m1 = 0.00025	0.00231	–	–	–
293.15 K, m1 = 0.00047	0.00432	–	–	–
293.15 K, m1 = 0.00077	0.00695	–	–	–
293.15 K, m1 = 0.0015	0.0134	–	–	–
293.15 K, m1 = 0.00228	0.0203	–	–	–
293.15 K, m1 = 0.00309	0.0273	–	–	–
293.15 K, m1 = 0.00382	0.0335	–	–	–
293.15 K, m1 = 0.00535	0.0458	–	–	–
293.15 K, m1 = 0.00805	–	–	–	56.25
293.15 K, m1 = 0.00813	0.0678	–	–	–
293.15 K, m1 = 0.0095	–	998.589	1484.6	–
293.15 K, m1 = 0.01113	0.0909	–	–	–
293.15 K, m1 = 0.01202	–	–	–	52.74
293.15 K, m1 = 0.01379	–	998.766	1485.5	–
293.15 K, m1 = 0.01397	0.112	–	–	–
293.15 K, m1 = 0.01627	–	–	–	49.46
293.15 K, m1 = 0.01652	–	998.876	1486.1	–
293.15 K, m1 = 0.01667	0.132	–	–	–
293.15 K, m1 = 0.01935	0.152	–	–	–
293.15 K, m1 = 0.02179	–	999.09	1487.2	–
293.15 K, m1 = 0.02193	0.17	–	–	–
293.15 K, m1 = 0.02206	–	–	–	45.32
293.15 K, m1 = 0.02449	0.187	–	–	–
293.15 K, m1 = 0.02615	–	999.268	1488	–
293.15 K, m1 = 0.02695	0.204	–	–	–
293.15 K, m1 = 0.02718	–	–	–	42.2
293.15 K, m1 = 0.02918	0.219	–	–	–
293.15 K, m1 = 0.03028	–	–	–	40.63
293.15 K, m1 = 0.03106	–	999.467	1489	–
293.15 K, m1 = 0.0311	0.231	–	–	–
293.15 K, m1 = 0.03299	0.243	–	–	–
293.15 K, m1 = 0.03338	–	999.559	1489.4	–
293.15 K, m1 = 0.03499	0.256	–	–	–
293.15 K, m1 = 0.03568	–	–	–	38.17
293.15 K, m1 = 0.03691	0.269	–	–	–
293.15 K, m1 = 0.03819	–	999.755	1490.3	–
293.15 K, m1 = 0.03912	0.282	–	–	–
293.15 K, m1 = 0.03969	–	–	–	37.78
293.15 K, m1 = 0.0406	–	999.853	1490.5	–
293.15 K, m1 = 0.04083	0.292	–	–	–
293.15 K, m1 = 0.04205	–	–	–	37.64
293.15 K, m1 = 0.0425	0.3	–	–	–
293.15 K, m1 = 0.04332	–	999.954	1490.9	–
293.15 K, m1 = 0.04369	0.305	–	–	–
293.15 K, m1 = 0.04444	–	–	–	37.78
293.15 K, m1 = 0.04545	0.311	–	–	–
293.15 K, m1 = 0.04581	–	–	–	37.96
293.15 K, m1 = 0.04614	–	1000.06	1491.1	–
293.15 K, m1 = 0.04751	0.317	–	–	–
293.15 K, m1 = 0.04833	–	–	–	38.56
293.15 K, m1 = 0.04952	0.323	–	–	–
293.15 K, m1 = 0.05149	0.327	–	–	–
293.15 K, m1 = 0.05344	0.332	–	–	–
293.15 K, m1 = 0.05515	–	1000.37	1491.4	–
293.15 K, m1 = 0.05532	0.336	–	–	–
293.15 K, m1 = 0.058	0.342	–	–	–
293.15 K, m1 = 0.05963	0.345	–	–	–
293.15 K, m1 = 0.06141	–	–	–	39.32
293.15 K, m1 = 0.06396	–	1000.67	1491.6	–
293.15 K, m1 = 0.07815	–	1001.15	1491.8	–
293.15 K, m1 = 0.0858	–	–	–	39.48
293.15 K, m1 = 0.122	–	1002.6	1492.4	–
293.15 K, m1 = 0.1481	–	–	–	39.36
293.15 K, m1 = 0.1726	–	1004.24	1493	–
293.15 K, m1 = 0.1979	–	–	–	39.38
293.15 K, m1 = 0.2247	–	1005.89	1493.8	–
293.15 K, m1 = 0.2539	–	1006.79	1494.1	–
298.15 K, m1 = 1e-05	0.000165	–	–	–
298.15 K, m1 = 3e-05	0.00031	–	–	–
298.15 K, m1 = 4e-05	0.000454	–	–	–
298.15 K, m1 = 5e-05	0.000592	–	–	–
298.15 K, m1 = 7e-05	0.000739	–	–	–
298.15 K, m1 = 0.0001	0.00103	–	–	–
298.15 K, m1 = 0.00012	0.00132	–	–	–
298.15 K, m1 = 0.00018	0.00193	–	–	–
298.15 K, m1 = 0.00025	0.00268	–	–	–
298.15 K, m1 = 0.0004	0.00418	–	–	–
298.15 K, m1 = 0.0006	0.00622	–	–	–
298.15 K, m1 = 0.00096	0.00987	–	–	–
298.15 K, m1 = 0.00171	0.0172	–	–	–
298.15 K, m1 = 0.00264	0.0265	–	–	–
298.15 K, m1 = 0.00371	0.0368	–	–	–
298.15 K, m1 = 0.00412	–	–	–	54.68
298.15 K, m1 = 0.00504	0.0494	–	–	–
298.15 K, m1 = 0.00703	0.0685	–	–	–
298.15 K, m1 = 0.00741	–	–	–	50.92
298.15 K, m1 = 0.00984	0.0933	–	–	–
298.15 K, m1 = 0.01142	–	–	–	47.08
298.15 K, m1 = 0.01267	0.117	–	–	–
298.15 K, m1 = 0.01525	0.139	–	–	–
298.15 K, m1 = 0.01559	–	–	–	43.86
298.15 K, m1 = 0.01793	0.16	–	–	–
298.15 K, m1 = 0.01865	–	–	–	42.13
298.15 K, m1 = 0.02048	0.181	–	–	–
298.15 K, m1 = 0.023	0.201	–	–	–
298.15 K, m1 = 0.02466	–	–	–	39.8
298.15 K, m1 = 0.02535	0.219	–	–	–
298.15 K, m1 = 0.02772	0.237	–	–	–
298.15 K, m1 = 0.02893	–	–	–	38.51
298.15 K, m1 = 0.02961	0.251	–	–	–
298.15 K, m1 = 0.03171	0.267	–	–	–
298.15 K, m1 = 0.03351	–	–	–	37.65
298.15 K, m1 = 0.03974	–	–	–	37.31
298.15 K, m1 = 0.04641	–	–	–	37.49
298.15 K, m1 = 0.05292	–	–	–	38.51
298.15 K, m1 = 0.05743	–	–	–	38.59
298.15 K, m1 = 0.06462	–	–	–	38.74
298.15 K, m1 = 0.0747	–	–	–	38.93
298.15 K, m1 = 0.0901	–	–	–	38.82
298.15 K, m1 = 0.1219	–	–	–	38.81
298.15 K, m1 = 0.1645	–	–	–	38.91
